Counter-ions that a name gives are not always drawn.
What was measured:
Type in all cases: cell-based
MECP2 mRNA [1] = experiment: MECP2 mRNA in primary human hepatocytes (donor 1, donor 2); conditions: average fold change; for Human hep donor-1 MECP2 (Avg_FC) 1 uM / Human hep donor-1 MECP2 (Avg_FC) 10 uM: human hepatocytes donor-1; for Human hep donor-1 MECP2 (Avg_FC) 1 uM / Human hep donor-2 MECP2 (Avg_FC) 1 uM: compound 1 uM; for Human hep donor-1 MECP2 (Avg_FC) 10 uM / Human hep donor-2 MECP2 (Avg_FC) 10 uM: compound 10 uM; for Human hep donor-2 MECP2 (Avg_FC) 1 uM / Human hep donor-2 MECP2 (Avg_FC) 10 uM: human hepatocytes donor-2
Description: (§1) Human hepatocytes were obtained from two donors from Massachusetts General Hospital, namely MGH54 and MGH63, and one donor from Lonza, namely HUM4111B. Cryopreserved hepatocytes were cultured in plating media for 16 hours, transferred to maintenance media for 4 hours. Cultured on serum-free media for 2 hours, then a compound was added. The hepatocytes were maintained on the serum-free media for 16 hours prior to gene expression analysis. Primary human hepatocytes were stored in the vapor phase of a liquid nitrogen freezer (about −130° C.).
(§2) Human hepatocytes cultured as described above were plated in 24-well format, adding 375,000 cells per well in a volume of 500 ul plating medium. Four hours before treatment, cells were washed with PBS and the medium was changed to either: fresh maintenance medium (complete) or modified maintenance medium.
(§3) Compound stocks were prepared at 1000× final concentration and added in a 2-step dilution to the medium to reduce risk of a compound precipitating out of solution when added to the cells, and to ensure reasonable pipetting volumes. One at a time, each compound was first diluted 10-fold in warm (about 37° C.) modified maintenance medium (initial dilution=ID), mixed by vortexing, and the ID was diluted 100-fold into the cell culture (e.g. 5.1 ul into 1 well of a 24-well plate containing 0.5 mL medium). The plate was mixed by carefully swirling and after all wells were treated and returned to the incubator overnight. If desired, separate plates/wells were treated with vehicle-only controls and/or positive controls. If using multi-well plates, controls were included on each plate. After about 18 hours, cells were harvested for further analysis, e.g., ChIP-seq, RNA-seq, ATAC-seq, etc.
Samples were amplified using Taqman probes from ThermoFisher.

MECP2 mRNA [2] = experiment: MECP2 mRNA in stellate cells; conditions: average fold change; for Stellate MECP2 (Avg_FC) 1 uM: compound 1 uM; for Stellate MECP2 (Avg_FC) 10 uM: compound 10 uM
NOTCH2 = experiment: RNA-seq of NOTCH2 expression in compound-treated primary human hepatocytes; conditions: primary human hepatocytes
Description: (§4) Human hepatocytes were obtained from two donors from Massachusetts General Hospital, namely MGH54 and MGH63, and one donor from Lonza, namely HUM4111B. Cryopreserved hepatocytes were cultured in plating media for 16 hours, transferred to maintenance media for 4 hours. Cultured on serum-free media for 2 hours, then a compound was added. The hepatocytes were maintained on the serum-free media for 16 hours prior to gene expression analysis. Primary human hepatocytes were stored in the vapor phase of a liquid nitrogen freezer (about -130° C.). Human hepatocytes cultured as described above were plated in 24-well format, adding 375,000 cells per well in a volume of 500 ul plating medium. Four hours before treatment, cells were washed with PBS and the medium was changed to either: fresh maintenance medium (complete) or modified maintenance medium. Compound stocks were prepared at 1000× final concentration and added in a 2-step dilution to the medium to reduce risk of a compound precipitating out of solution when added to the cells, and to ensure reasonable pipetting volumes. […] The plate was mixed by carefully swirling and after all wells were treated and returned to the incubator overnight. If desired, separate plates/wells were treated with vehicle-only controls and/or positive controls. If using multi-well plates, controls were included on each plate. After about 18 hours, cells were harvested for further analysis, e.g., ChIP-seq, RNA-seq, ATAC-seq, etc. This protocol is a modified version of the following protocols: MagMAX mirVana Total RNA Isolation Kit User Guide (Applied Biosystems #MAN0011131 Rev B.0), NEBNext Poly(A) mRNA Magnetic Isolation Module ([…]), and NEBNext Ultra Directional RNA Library Prep Kit for Illumina ([…]) (New England Biosystems #E74901). […] Two hundred μl of Lysis Binding Mix was used per well of the multiwell plate containing adherent cells (usually a 24-well plate). For mRNA isolation and library prep, the NEBNext Poly(A) mRNA Magnetic Isolation Module and Directional Prep kit was used. RNA isolated from cells above was quantified, and prepared in […] of each sample in 50 μl of nuclease-free water. This protocol may be run in microfuge tubes or in a 96-well plate. […] Genomic alignments were converted to transcriptome alignments based on reference transcript annotations from the Human GENCODE Gene Set release 24 (Harrow et al., Genome Res. […] Standard QC were applied (read integrity, mapping statistics, library complexity, fragment bias) to remove unsatisfactory samples. Differential gene expression was computed using the negative binomial model implemented by DESeq2 version 1.16.1 (Love et al., Genome Biol. (2014) 15(12):550). […] RNA-seq signals were also normalized by read depth and visualized using the UCSC browser. To identify small molecules that modulate target gene expression, primary human hepatocytes were prepared as a monoculture, and at least one small molecule compound was applied to the cells. RNA-seq was performed to determine the effects of the compounds on the expression of the target genes in hepatocytes. Fold change was calculated by dividing the level of expression in the cell system that had been perturbed by the level of expression in an unperturbed system.

JAG1 = experiment: RNA-seq of JAG1 expression in compound-treated primary human hepatocytes
Description: as §4

ANGPTL3 = experiment: RNA-seq of ANGPTL3 expression in compound-treated primary human hepatocytes; conditions: additional compounds (Table 13), linear fold change
Description: as §1, §2, §3
This protocol is a modified version of the following protocols: MagMAX mirVana Total RNA Isolation Kit User Guide (Applied Biosystems #MAN0011131 Rev B.0), NEBNext Poly(A) mRNA Magnetic Isolation Module (E7490), and NEBNext Ultra Directional RNA Library Prep Kit for Illumina (E7420) (New England Biosystems #E74901).
The MagMAX mirVana kit instructions (the section titled “Isolate RNA from cells” on pages 14-17) were used for isolation of total RNA from cells in culture. Two hundred μl of Lysis Binding Mix was used per well of the multiwell plate containing adherent cells (usually a 24-well plate).
For mRNA isolation and library prep, the NEBNext Poly(A) mRNA Magnetic Isolation Module and Directional Prep kit was used. RNA isolated from cells above was quantified, and prepared in […] of each sample in 50 μl of nuclease-free water. This protocol may be run in microfuge tubes or in a 96-well plate.
All pass filter reads from each sample were mapped against the human genome (assembly GRCh38/GCA_000001405.15 “no alt” analysis set merged with hs38d1/GCA_000786075.2) using two pass mapping via STAR version 2.5.3a (alignment parameters alignIntronMin=20; alignIntronMax=1000000; outFilterMismatchNmax=999; outFilterMismatchNoverLmax=0.05; outFilterType=BySJout; outFilterMultimapNmax=20; alignSJoverhangMin=8; alignSJDBoverhangMin=1; alignMatesGapMax=1000000) (Dobin et al., Bioinformatics (2012) 29(1):15-21). Genomic alignments were converted to transcriptome alignments based on reference transcript annotations from the Human GENCODE Gene Set release 24 (Harrow et al., Genome Res. (2012) 22(9): 1760-1774). Using unique and multimapped transcriptomic alignments, gene-level abundance estimates were computed using RSEM version 1.3.0 (Li and Dewey, BMC Bioinformatics (2011) 12:323) in a strand-aware manner, and including confidence interval sampling calculations, to arrive at posterior mean estimates (PME) of abundances (counts and normalized FPKM—fragments per kilobase of exon per million mapped fragments) from the underlying Bayesian model. Standard QC were applied (read integrity, mapping statistics, library complexity, fragment bias) to remove unsatisfactory samples.

| Compound | Human hep donor-1 MECP2 (Avg_FC) 1 uM (MECP2 mRNA [1]) | Human hep donor-1 MECP2 (Avg_FC) 10 uM (MECP2 mRNA [1]) | Stellate MECP2 (Avg_FC) 1 uM (MECP2 mRNA [2]) | Stellate MECP2 (Avg_FC) 10 uM (MECP2 mRNA [2]) | NOTCH2 Fold Change (Log2) (NOTCH2) | JAG1 Fold Change (Log2) (JAG1; primary human hepatocytes) | Significant modulation of JAG1 (in words) (JAG1; summary of Table 6) | Human hep donor-2 MECP2 (Avg_FC) 1 uM (MECP2 mRNA [1]) | Human hep donor-2 MECP2 (Avg_FC) 10 uM (MECP2 mRNA [1]) | ANGPTL3-LINEAR FOLD CHANGE (ANGPTL3) |
| --- | --- | --- | --- | --- | --- | --- | --- | --- | --- | --- |
| C=CCNC1=C2C[C@@H](C)C[C@H](OC)[C@H](O)[C@@H](C)/C=C(\C)[C@H](OC(N)=O)[C@@H](OC)/C=C\C=C(/C)C(=O)NC(=CC1=O)C2=O [17-AAG (Tanespimycin)/KOS-953] | 1.63 | 2.80 | 2.43 | 2.21 |  |  |  |  |  |  |
| Cc1cc(-c2nc(-c3ccc(OC(F)(F)F)cc3)no2)nn1Cc1ccnc(N2CCN(C3CC3)CC2)c1 [BAY 87-2243] |  |  |  |  | 0 | 0.61 | significantly modulate only JAG1 |  |  |  |
| CCOc1ccn(-c2ccc(F)cc2)c(=O)c1C(=O)Nc1ccc(Oc2ccnc(N)c2Cl)c(F)c1 [BMS 777607] |  |  | 0.97 | 1.92 |  |  |  | 1.35 | 3.04 |  |
| c1cc(OCCN2CCCCC2)cc(-c2n[nH]c3ccc(-c4nc[nH]n4)cc23)c1 [CC-401 hydrochloride] | 1.84 | 2.03 | 1.92 | 2.69 |  |  |  |  |  |  |
| COc1cccc(-c2cc(F)ccc2[C@H]2Cc3nc(N)nc(C)c3C(=O)N2)n1 [HSP-990] | 2.54 | 2.72 | 1.98 | 1.99 |  |  |  | 1.27 | 1.66 |  |
| CC(C)n1nc(-c2ccc3oc(N)nc3c2)c2c(N)ncnc21 [INK-128] |  |  | 1.33 | 2.42 |  |  |  | 2.16 | 2.52 |  |
| NC(=O)c1ccc(I)c([N+](=O)[O-])c1 [Iniparib (BSI-201)] | 2.28 | 2.15 | 2.39 | 2.26 |  |  |  |  |  |  |
| CN(C)C[C@@H]1CCn2cc(c3ccccc32)C2=C(C(=O)NC2=O)c2cn(c3ccccc23)CCO1.Cl [LY333531 HCl] | 1.44 | 2.14 | 1.26 | 2.15 |  |  |  |  |  |  |
| O=C1NC(=O)C(c2cnc3ccccn23)=C1c1cn2c3c(cc(F)cc13)CN(C(=O)N1CCCCC1)CC2 [LY2090314] | 2.43 | 1.94 | 2.65 | 2.20 |  |  |  |  |  | 0.1895 |
| Cc1ccc(F)c(NC(=O)Nc2ccc(-c3cccc4[nH]nc(N)c34)cc2)c1 [Linifanib (ABT-869), Linifanib] | 1.78 | 2.01 | 2.50 | 3.17 |  |  |  |  |  |  |
| O=C(O)[C@]1(Cc2cccc(Nc3nccs3)n2)CC[C@@H](Oc2cccc(Cl)c2F)CC1 [MK-5108 (VX-689)] | 2.42 | 2.35 | 2.17 | 2.01 |  |  |  |  |  |  |
| COc1ccc(Cl)c(Nc2nc3ccccc3nc2NS(=O)(=O)c2cccc(NC(=O)C(C)(C)N)c2)c1 [Pilaralisib (XL147), Pilaralisib] | 1.95 | 1.75 | 2.28 | 2.21 |  |  |  |  |  | 0.2606 |
| CCc1ccc(CCOc2ccc(CC3SC(=O)NC3=O)cc2)nc1 (stereo not drawn) [Pioglitazone HCl] | 2.21 | 2.27 | 1.94 | 1.86 |  |  |  |  |  |  |
| CNC(=O)c1cc(Oc2ccc(NC(=O)Nc3ccc(Cl)c(C(F)(F)F)c3)c(F)c2)ccn1 [Regorafenib (BAY 73-4506)] | 2.05 | 1.92 | 2.31 | 2.77 |  |  |  |  |  |  |
| CCC(=O)N1CCN(c2ccc(-n3c(=O)ccc4cnc5ccc(-c6cnc7ccccc7c6)cc5c43)cc2C(F)(F)F)CC1 [torin1] |  |  | 1.87 | 3.65 |  |  |  | 1.34 | 1.79 |  |

From patent US20210161997A1, “TREATING DISEASES VIA TARGETED MODULATION OF GENE SIGNALING NETWORKS” (Camp4 Therapeutics Corporation, priority 2018, published 2021)
